Measured values reported in paper PMC12444472, “BCI inhibits MKP3 by targeting the kinase-binding domain and disrupting ERK2 interaction” (The Journal of Biological Chemistry, 2025).
Residue numbers refer to the chain shown, from its start.

Experiments:
Assay in all cases: Phosphatase activity of MKP3 mutant toward pNPP with ERK2
Type in all cases: biochemical
Settings in all cases: 1 µM enzyme, 1 µM ERK2, 8 mM pNPP, 2.5 μM BCI
MKP3 T87G = biological target: T1, MKP3 T87G (Homo sapiens, UniProt Q16828, T87G)
T1 construct: MKP3(1–381) (MKP3^FL); made in house; host or cells: Escherichia coli BL21(DE3)
T1 sequence (Q16828 1-381 T87G): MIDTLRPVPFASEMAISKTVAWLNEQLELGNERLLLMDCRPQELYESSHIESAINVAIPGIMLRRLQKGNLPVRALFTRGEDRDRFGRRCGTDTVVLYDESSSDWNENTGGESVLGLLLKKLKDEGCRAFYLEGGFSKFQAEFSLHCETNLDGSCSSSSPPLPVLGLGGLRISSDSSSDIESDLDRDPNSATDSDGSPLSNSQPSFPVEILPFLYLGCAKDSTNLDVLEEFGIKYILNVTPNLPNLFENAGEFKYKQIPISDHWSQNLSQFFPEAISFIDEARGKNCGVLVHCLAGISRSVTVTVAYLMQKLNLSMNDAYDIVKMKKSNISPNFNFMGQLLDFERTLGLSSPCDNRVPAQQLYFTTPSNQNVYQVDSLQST
Procedure: (§1) The phosphatase activity of MKP3 toward pNPP was measured using continuous spectrophotometric assays, either in the absence or the presence of ERK2 at a 1:1 M ratio with MKP3. Experiments were conducted at 25 °C in a reaction mixture with a total volume of 1.8 ml, containing 50 mM Mops (pH 7.0), 100 mM NaCl, and 0.1 mM EDTA. MKP3 (1 μM) was preincubated with varying concentrations of the inhibitor BCI for 5 min before initiating the reaction by adding pNPP at concentrations ranging from 0 to 14 mM. Continuous absorbance changes were recorded using a PerkinElmer LAMBDA 45 spectrophotometer equipped with a magnetic stirrer in the cuvette holder. The production of p-nitrophenol was monitored at 410 nm using an extinction coefficient of 18,000 M^-1 cm^-1.
(§2) Figure S2. Inhibition of full-length MKP3 mutant activity by BCI. The phosphatase activities (v0) of full-length MKP3 and its mutants (E81G, R83G, R85G, R87G, and R89A) at 1 µM concentration were measured using continuous spectrophotometric assays with 8 mM pNPP as the substrate, in the presence of ERK2 (1 µM), either without or with 2.5 μM BCI. Data are presented as mean ± SD (n = 3). Reactions were performed at 25 °C in a total volume of 1.8 mL, in a buffer containing 50 mM MOPS (pH 7.0), 100 mM NaCl, and 0.1 mM EDTA.

MKP3 R89A = biological target: T2, MKP3 R89A (Homo sapiens, UniProt Q16828, R89A)
T2 construct: MKP3(1–381) (MKP3^FL); made in house; host or cells: Escherichia coli BL21(DE3)
T2 sequence (Q16828 1-381 R89A): T1 sequence (Q16828 1-381 T87G) with G87T, R89A
Procedure: as §1, §2

MKP3 E81G = biological target: T3, MKP3 E81G (Homo sapiens, UniProt Q16828, E81G)
T3 construct: MKP3(1–381) (MKP3^FL); made in house; host or cells: Escherichia coli BL21(DE3)
T3 sequence (Q16828 1-381 E81G): T1 sequence (Q16828 1-381 T87G) with E81G, G87T
Procedure: as §1, §2

MKP3 R83G = biological target: T4, MKP3 R83G (Homo sapiens, UniProt Q16828, R83G)
T4 construct: MKP3(1–381) (MKP3^FL); made in house; host or cells: Escherichia coli BL21(DE3)
T4 sequence (Q16828 1-381 R83G): T1 sequence (Q16828 1-381 T87G) with R83G, G87T
Procedure: as §1, §2

enzymatic activity upon BCI addition compared with MKP3^WT (MKP3 T87G): BCI inhibition comparable to MKP3^WT | enzymatic activity upon BCI addition compared with MKP3^WT (MKP3 R89A): higher enzymatic activity than WT MKP3 | enzymatic activity upon BCI addition compared with MKP3^WT (MKP3 E81G): higher enzymatic activity than WT MKP3 | enzymatic activity upon BCI addition compared with MKP3^WT (MKP3 R83G): higher enzymatic activity than WT MKP3
SMILES: O=C1/C(=C/c2ccccc2)C(NC2CCCCC2)c2ccccc21 (stereo not shown) [BCI, (E)-2-benzylidene-3-(cyclohexylamino)-2,3-dihydro-1H-inden-1-one]
